Columns and labels:
XSepA [1] = target: T1, XSepA (Xenopus laevis, UniProt Q9DE33); test: Filament sedimentation assay through glycerol cushion; type: biochemical; conditions: 1 mg/ml septin, 0.1 mM nucleotide, 30 min, 279000×g
T1 construct: made in house; host or cells: E. coli BL21(DE3)
T1 sequence (Q9DE33 1-356): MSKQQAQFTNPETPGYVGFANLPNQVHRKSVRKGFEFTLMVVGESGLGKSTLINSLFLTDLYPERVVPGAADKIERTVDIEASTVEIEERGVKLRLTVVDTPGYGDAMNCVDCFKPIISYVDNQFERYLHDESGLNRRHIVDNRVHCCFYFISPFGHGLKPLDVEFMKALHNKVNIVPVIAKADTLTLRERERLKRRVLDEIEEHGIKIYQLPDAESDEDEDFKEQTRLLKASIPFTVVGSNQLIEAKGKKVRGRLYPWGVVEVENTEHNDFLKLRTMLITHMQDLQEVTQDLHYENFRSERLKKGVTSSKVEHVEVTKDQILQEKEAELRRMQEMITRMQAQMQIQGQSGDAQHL
Description: Polymerization reactions were carried out in S-buffer in the presence of 5 mM MgCl2 and GTP, GTP-γ-S, GDP or ATP (Gibco). Before nucleotide addition, all samples were pre-cleared in an ultracentrifuge (see below). Aliquots of the reaction were diluted to a final septin concentration of 3.3 μg/ml, and 100 μl drops spotted on glass coverslips for 1 min. Before use, coverslips were soaked with an acetone solution of 0.5% 3-aminopropyltriethoxy-silane (Sigma), washed in acetone and air-dried. Following sample application, the coverslips were washed with 2 ml S-buffer, fixed in cold methanol for 10 min and stained with a polyclonal rabbit antibody raised against an N-terminal peptide of XSepA (M. Glotzer and T. Hyman, in preparation). Secondary antibodies were DTAF-coupled anti-rabbit (Dianova). Images were acquired using a Zeiss Axioplan II microscope and Adobe Photoshop software. Processing and analysis of immunofluorescence images was performed on a Macintosh computer using the public domain NIH Image program (developed at the U.S. National Institutes of Health and available at http://rsb.info.nih.gov/nih-image). Thresholded binary images were generated, and particle length was obtained by measuring the major axis of the best fitting ellipse. Particles with length <0.4 μm were not included in the analysis. […]

XSepA filaments = target: T2, XSepA filaments (Xenopus laevis, UniProt Q9DE33); test: Dilution-induced filament depolymerization; type: biochemical; conditions: 20 min after 600-fold dilution into buffer
T2 construct: made in house; host or cells: E. coli BL21(DE3)
T2 sequence (Q9DE33 1-356): T1 sequence (Q9DE33 1-356)
Description: To gain insight into the polymerization mechanism of XSepA, the kinetics of the filament formation reaction was followed using immunofluorescence microscopy. At different times after GTP addition, aliquots of septin protein were processed for immunofluorescence as already described. For each time point, individual septin filaments were counted and their lengths measured. The length of all the filaments present in a field was added, and the result (proportional to the polymer mass) was plotted against time. Immunofluorescence images were acquired as described and the length of the filaments was measured (see Methods section). The relative polymer mass was obtained by adding the length of all the filaments present in a field. Each point represents data from four random fields. Only filaments of ≧400 nm in length were considered in the analysis. (A) Time course of filament assembly. […] Polymer content was determined after 30 min incubation. […] In (B) and (C) a curve was fitted to the data points where filaments were detected.
To address the role of GTP hydrolysis in septin filament formation, the polymerization kinetics of XSepA in the presence of a slowly hydrolysable GTP analogue, GTP-γ-S, was studied. […] To investigate directly whether nucleotide hydrolysis promotes disassembly, filaments assembled with GTP or GTP-γ-S were diluted 600-fold into buffer and depolymerization rates were determined. […]

XSepA [2] = target: T1, XSepA; test: Filament assembly / polymerization followed by immunofluorescence microscopy; type: biochemical; conditions: for length of the lag phase of polymerization: 1 mg/ml XSepA, 0.1 mM nucleotide; for critical concentration for XSepA polymerization: 30 min incubation with nucleotide; for filamentous structures observed: control nucleotide used instead of GTP, 30 minutes
Description: Polymerization reactions were carried out in S-buffer in the presence of 5 mM MgCl2 and GTP, GTP-γ-S, GDP or ATP (Gibco). Before nucleotide addition, all samples were pre-cleared in an ultracentrifuge (see below). Aliquots of the reaction were diluted to a final septin concentration of 3.3 μg/ml, and 100 μl drops spotted on glass coverslips for 1 min. Before use, coverslips were soaked with an acetone solution of 0.5% 3-aminopropyltriethoxy-silane (Sigma), washed in acetone and air-dried. Following sample application, the coverslips were washed with 2 ml S-buffer, fixed in cold methanol for 10 min and stained with a polyclonal rabbit antibody raised against an N-terminal peptide of XSepA (M. Glotzer and T. Hyman, in preparation). Secondary antibodies were DTAF-coupled anti-rabbit (Dianova). Images were acquired using a Zeiss Axioplan II microscope and Adobe Photoshop software. Processing and analysis of immunofluorescence images was performed on a Macintosh computer using the public domain NIH Image program (developed at the U.S. National Institutes of Health and available at http://rsb.info.nih.gov/nih-image). Thresholded binary images were generated, and particle length was obtained by measuring the major axis of the best fitting ellipse. Particles with length <0.4 μm were not included in the analysis. Although filaments tended to be straight, this procedure results in underestimation of the length of curved filaments. For sedimentation assays, 20 μl polymerization reactions containing 1 mg/ml septin were pre-cleared in an ultracentrifuge at 279000×g for 15 min at 4° C. Precleared samples were incubated with nucleotide at room temperature for 30 min and spun through a 50% glycerol cushion at 279000×g for 15 min at 25° C.
Filament forming proteins like actin, tubulin and FtsZ polymerize in a nucleotide-dependent fashion. To test whether septin filament assembly is regulated by a similar mechanism, XSepA was incubated with GTP (or its slowly hydrolyzable analogue GTP-γ-S) for 30 minutes and spotted onto glass coverslips. After the coverslips were fixed and stained with anti-XSepA antibody, filamentous structures of up to 7 μm in length were observed. […] FIGS. 2A and 2B depict the GTP-dependent assembly of XSepA and Δcc-SepA filaments. Top panels: Immunostainings of septin preparations (1 mg/ml) incubated with 0.1 mM of the indicated nucleotide for 30 min and diluted in S-buffer prior to fixation. Filamentous structures are observed with both full-length (A) and Δcc-SepA (B) only in the presence of GTP or GTP-γ-S. Bottom panels: Identical reactions were centrifuged through a 50% glycerol cushion at 279000×g for 15 min. Supernatants (S) and pellets (P) were collected and resolved by gel electrophoresis.
To gain insight into the polymerization mechanism of XSepA, the kinetics of the filament formation reaction was followed using immunofluorescence microscopy. At different times after GTP addition, aliquots of septin protein were processed for immunofluorescence as already described. For each time point, individual septin filaments were counted and their lengths measured. The length of all the filaments present in a field was added, and the result (proportional to the polymer mass) was plotted against time. Immunofluorescence images were acquired as described and the length of the filaments was measured (see Methods section). The relative polymer mass was obtained by adding the length of all the filaments present in a field. Each point represents data from four random fields. Only filaments of ≧400 nm in length were considered in the analysis. (A) Time course of filament assembly. At different times following nucleotide addition to 0.1 mM (t=0 min) aliquots of a reaction containing 1 mg/ml XSepA were diluted 300-fold and spotted on coverslips for 1 min before washing and fixation. (B) Determination of the critical concentration for polymerization. […]

XSepA [3] = target: T1, XSepA; test: GTP filter binding assay; conditions: for ability of cold nucleotide to compete with the radiolabeled guanine nucleotide: data not shown
Description: For GTP binding, 1 μM of XSepA (or Δcc-SepA) in S-buffer was incubated with 0.1 mg/ml BSA, 5 mM MgCl2 and 4.4 μM ^3H-GTP (4.60 Ci/mmol, 1 mCi/ml; Amersham). At time intervals, aliquots of the reaction were diluted in cold wash buffer (20 mM Tris pH 8.0, 50 mM NaCl, 5 mM MgCl2) and filtered through pre-wetted nitrocellulose circles (Schleicher and Schuell) Filters were washed with 10 ml of wash buffer, dried, and the retained radioactivity quantified in a scintillation counter.
The ability of recombinant XSepA to bind guanine nucleotide was tested by using a filter binding assay. […] To assay for GTP hydrolysis, XSepA was incubated with limiting amounts of [α-^32P]GTP and the production of radioactive GDP was followed by thin layer chromatography. […] FIGS. 1C and 1D show time courses of GTP binding and hydrolysis by XSepA and Δcc-SepA. Recombinant protein (1 μM) was incubated with an excess of [^3H]GTP to quantify nucleotide binding, or with sub-stoichiometric amounts of [α-^32P]GTP to detect nucleotide hydrolysis. (C) GTP binding as determined by a filter-binding assay. (D) TLC plate showing generation of radioactive GDP from GTP. Aliquots of the reaction were quenched in a denaturing solution at the indicated time, and the nucleotide content was resolved by TLC. BSA (0.1 mg/ml) was used as a negative control in both experiments.)

[4] = literature values; tubulin: pure, in glycerol buffer; cited from earlier work

Nc1nc2c(ncn2[C@@H]2O[C@H](COP(=O)(O)OP(=O)(O)OP(O)(O)=S)[C@@H](O)[C@H]2O)c(=O)[nH]1 [GTP-γ-S]
sedimentable fraction of septin after incubation with nucleotide (XSepA [1]): increased significantly
filaments still present (XSepA filaments): ca. 30 % of their initial level
length of the lag phase of polymerization (XSepA [2]): 3 min
critical concentration for XSepA polymerization (XSepA [2]): 0.2 mg/mL

Nc1nc2c(ncn2[C@@H]2O[C@H](COP(=O)(O)OP(=O)(O)OP(=O)(O)O)[C@@H](O)[C@H]2O)c(=O)[nH]1 [GTP, guanosine triphosphate]
sedimentable fraction of septin after incubation with nucleotide (XSepA [1]): increased significantly
depolymerization after dilution (XSepA filaments): essentially complete
length of the lag phase of polymerization (XSepA [2]): 5 min
critical concentration for XSepA polymerization (XSepA [2]): 0.5 mg/mL
ability of cold nucleotide to compete with the radiolabeled guanine nucleotide (XSepA [3]): able to compete
GTP binding plateau (XSepA [3]; filter binding, excess [3H]GTP): 0.4-0.5 moles GTP/moles of XSepA
time to essentially complete maximum of nucleotide binding (XSepA [3]; limiting concentration of nucleotide, not shown): ≤ 5 min

Nc1nc2c(ncn2[C@@H]2O[C@H](COP(=O)(O)OP(=O)(O)O)[C@@H](O)[C@H]2O)c(=O)[nH]1 [GDP]
filamentous structures observed (XSepA [2]): This was not the case
ability of cold nucleotide to compete with the radiolabeled guanine nucleotide (XSepA [3]): not

Nc1ncnc2c1ncn2[C@@H]1O[C@H](COP(=O)(O)OP(=O)(O)OP(=O)(O)O)[C@@H](O)[C@H]1O [ATP]
filamentous structures observed (XSepA [2]): This was not the case
ability of cold nucleotide to compete with the radiolabeled guanine nucleotide (XSepA [3]): not

actin
critical concentration for polymerization [4]: ~0.2 µM

— patent publication US6485924B2, “Method for identifying inhibitors of cytokinesis” (Boehringer Ingelheim International GmbH, priority 1999, dated 2002)
